# Reference: the supplement of paper PMC6045584
# ± gives the standard deviation of the averaged measurements.
# Compound: CN1CC[C@H](c2c(O)cc(O)c3c(=O)cc(-c4ccccc4Cl)oc23)[C@H](O)C1 [FLAVOPIRIDOL]
# Assay: surviving fraction relative to DMSO-only wells; higher = less growth inhibition
# Conditions: exposure time: 5 days
# In short: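 For each tumour cell line, log-phase cells were put into 384-well plates at 250–500 cells per well, then after 24 hours exposed continuously for five days to inhibitors at 0.5, 1, 5, 10, 50, 100, 500 and 1000 nM. Viability was assessed by CellTiter-Glo luminescence, with surviving fraction expressed relative to the median of DMSO-only wells. Lines were screened three times and retained only if replicate Pearson r exceeded 0.7 and median Z' exceeded 0.3.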
Test System,surviving fraction (0.5 nM),surviving fraction (1 nM),surviving fraction (5 nM),surviving fraction (10 nM),surviving fraction (50 nM),surviving fraction (100 nM),surviving fraction (500 nM),surviving fraction (1000 nM)
CME SYNOVIAL,1.13 ± 0.18,1.22 ± 0.07,1.23 ± 0.081,1.2 ± 0.07,0.864 ± 0.053,0.25 ± 0.0067,0.168 ± 0.004,0.228 ± 0.012
COLO320DM LARGE INTESTINE,1.1 ± 0.11,1.09 ± 0.086,1.08 ± 0.14,1.01 ± 0.12,0.503 ± 0.0073,0.0807 ± 0.0055,0.0493 ± 0.00076,0.0478 ± 0.0036
DU4475 BREAST,1.05 ± 0.1,1.08 ± 0.12,0.83 ± 0.07,0.914 ± 0.16,0.162 ± 0.021,0.0273 ± 0.0021,0.025 ± 0.0027,0.0267 ± 0.0021
H23 LUNG,1.03 ± 0.034,1.05 ± 0.027,1.15 ± 0.073,1.18 ± 0.079,1.54 ± 0.11,0.5197 ± 0.005,0.0303 ± 0.0015,0.026 ± 0.001
HCC78 LUNG,1.08 ± 0.18,0.94 ± 0.032,0.898 ± 0.11,0.809 ± 0.25,0.151 ± 0.032,0.0467 ± 0.0059,0.0207 ± 0.00058,0.02
HCC202 BREAST,0.988 ± 0.55,1.17 ± 0.34,1.13 ± 0.22,1.06 ± 0.31,0.847 ± 0.13,0.304 ± 0.012,0.0405 ± 0.00071,0.0405 ± 0.00071
HCC1395 BREAST,1 ± 0.21,1.13 ± 0.062,1.2 ± 0.097,1.311 ± 0.006,1.3 ± 0.16,0.992 ± 0.14,0.51 ± 0.36,0.419 ± 0.19
HCC1806 BREAST,0.833 ± 0.14,0.959 ± 0.059,1.03 ± 0.08,1.06 ± 0.062,0.586 ± 0.038,0.093 ± 0.0078,0.0207 ± 0.00058,0.0217 ± 0.00058
HCC1954 BREAST,1.16 ± 0.0025,1.12 ± 0.063,1.49 ± 0.18,1.12 ± 0.23,0.361 ± 0.1,0.0465 ± 0.0057,0.0345 ± 0.0014,0.0318 ± 0.0039
HCT15 LARGE INTESTINE,1.06 ± 0.085,0.963 ± 0.12,0.991 ± 0.13,0.92 ± 0.12,0.45 ± 0.035,0.103 ± 0.013,0.0417 ± 0.0025,0.0417 ± 0.0015
HELA CERVIX,0.987 ± 0.041,0.962 ± 0.045,1.03 ± 0.086,0.936 ± 0.018,1.16 ± 0.053,0.691 ± 0.027,0.0347 ± 0.001,0.0268 ± 0.00029
HOS BONE,1.02 ± 0.018,1.03 ± 0.011,1.034 ± 0.01,1.04 ± 0.019,0.9813 ± 0.0095,0.352 ± 0.02,0.0367 ± 0.0072,0.035 ± 0.003
HOSMNG BONE,0.977 ± 0.05,0.991 ± 0.049,1 ± 0.011,0.981 ± 0.024,1.01 ± 0.079,0.498 ± 0.021,0.059 ± 0.007,0.0577 ± 0.0065
HSSYII SYNOVIAL,0.999 ± 0.021,0.993 ± 0.025,1.01 ± 0.083,0.907 ± 0.037,0.564 ± 0.034,0.145 ± 0.017,0.0215 ± 0.0005,0.0212 ± 0.00058
HT1080 SOFT TISSUE,1.05 ± 0.027,1.05 ± 0.02,1.03 ± 0.029,1.016 ± 0.0044,0.4973 ± 0.0011,0.193 ± 0.024,0.061 ± 0.003,0.0633 ± 0.0021
